Test results from PubChem BioAssay AID1996.
≈ marks a conversion by molar mass, not a printed value.

Conditions: buffer; pH 7.4; 200.0 µM

| SMILES | solubility kinetic |
| --- | --- |
| COc1ccc(CNC(=O)CCC(=O)Nc2cccnc2)cc1 | 42.3 µg/mL (≈ 135 µM) |
| CNc1oc(/C=C/c2cccc(OC)c2)nc1C#N | 3.7 µg/mL (≈ 14.5 µM) |
| CCOC(=O)CC1C(=O)NCCN1Cc1ccc(OC)c(OC)c1 (configuration not stated) | > 50.5 µg/mL |
| O=C(Oc1ccc(OC(=O)N2CCCCC2)cc1)N1CCCCC1 | 1.1 µg/mL (≈ 3.31 µM) |
| COc1cc(OC)c(C(=O)Nc2ccc3ccccc3c2)cc1OC | < 0.7 µg/mL |
| CC1CCCCC1NC(=O)NC(=O)COC(=O)c1nccnc1N (configuration not stated) | > 50.3 µg/mL |
| COc1ccc(S(=O)(=O)N2CCC(C(=O)Oc3cccc(C)c3)CC2)cc1OC | < 0.9 µg/mL |
| c1ccc2c(OCCCCN3CCCC3)cccc2c1 | 40.1 µg/mL (≈ 149 µM) |
| CC1CCN(c2ccc(C=O)o2)CC1 | > 29 µg/mL |
| O=C(c1cc2ccccc2oc1=O)N1CCOCC1 | > 38.9 µg/mL |
| Cc1oncc1C(=O)NC1CCCCC1 | > 31.2 µg/mL |
| O=C(CCC1CCCC1)NCCCNC(=O)CCC1CCCC1 | 36.2 µg/mL (≈ 112 µM) |
| NS(=O)(=O)c1ccc(Sc2ccc3ccccc3c2)nc1 | 2.1 µg/mL (≈ 6.64 µM) |
| C/C(=N\OC(=O)c1ccccc1)c1c(C)nc2cc(C)ccn12 | 44.7 µg/mL (≈ 145 µM) |
| C=CCNC(=S)NCc1ccccc1 | > 30.9 µg/mL |
| O=C(Nc1ccccc1)Nc1csc2ccccc12 | 0.6 µg/mL (≈ 2.24 µM) |
| Cc1ccc(C)c(C(=O)OCC(=O)N(C)c2ccccc2)c1 | 38 µg/mL (≈ 128 µM) |
| CCC(C)NC(=O)Cc1c(OC)ccc2cc(Br)ccc12 (configuration not stated) | < 0.8 µg/mL |
| Cc1oc(S(=O)(=O)N(C)C)cc1C(=O)Nc1ccc(Cl)cc1 | < 0.4 µg/mL |
| O=[N+]([O-])c1cccc(CN2CCC(Cc3ccccc3)CC2)c1 | 17.3 µg/mL (≈ 55.7 µM) |
| O=C(CSCc1ccc(Br)cc1)NCc1ccccn1 | > 52.7 µg/mL |

| SMILES | solubility kinetic |
| --- | --- |
| CC1CC(C)CN(CC(=O)c2cccs2)C1 (configuration not stated) | 30.8 µg/mL (≈ 130 µM) |
| CC1(C(=O)O)CCC(C(=O)Nc2ccc(F)cc2)C1(C)C (configuration not stated) | > 44 µg/mL |
| Cc1ccc(C(C)C)c(OCC(O)CNC2CCCC2)c1.Cl (configuration not stated) | > 49.2 µg/mL |
| COc1ccc2c(c1)-c1nc(/N=C/c3ccc(O)cc3)sc1CC2 | 34 µg/mL (≈ 101 µM) |
| CC(NS(=O)(=O)c1ccc2[nH]c(=O)c(=O)[nH]c2c1)C(=O)O (configuration not stated) | 13.9 µg/mL (≈ 44.4 µM) |
| N#C/C=C/N1CCC(Cc2ccccc2)CC1 | 29.6 µg/mL (≈ 131 µM) |
| CC(=O)C1=C(O)C(=O)N(c2ccccn2)C1c1cccc(F)c1 (configuration not stated) | > 46.8 µg/mL |
| CCC1CN(C(=O)NCc2ccccc2)c2cc(Cl)ccc2O1 (configuration not stated) | < 0.4 µg/mL |
| Cc1cccn2cc(-c3cc4ccccc4oc3=O)nc12 | 0.6 µg/mL (≈ 2.17 µM) |
| COc1ccc(-c2cc(=O)oc(-c3cccc(C)c3)n2)cc1 | 1.1 µg/mL (≈ 3.75 µM) |
| O=C(CSc1nncs1)NCc1ccc(F)cc1 | > 42.5 µg/mL |
| CCN1CCN(CC(c2ccccc2)c2ccccc2)CC1 | 29.1 µg/mL (≈ 98.8 µM) |
| O=C(CSc1ncnc2sccc12)Nc1ccccc1F | 5.9 µg/mL (≈ 18.5 µM) |
| O=C1CCCCCCCCCC/C(=N\O)CCCO1 | 9.8 µg/mL (≈ 36.4 µM) |
| N#Cc1c(N2CCOCC2)nsc1-c1ccc(C(F)(F)F)cc1 | < 0.2 µg/mL |
| O=C(Nc1cccc(S(=O)(=O)N2CCOCC2)c1)c1ccc(Cl)nc1 | > 57.3 µg/mL |
| C=C(C)CN(Cc1ccccc1)C(=S)Nc1ccccc1 | 1.9 µg/mL (≈ 6.41 µM) |
| CC(C)N1CC(C(=O)Nc2ccc(Cl)c([N+](=O)[O-])c2)CC1=O (configuration not stated) | 45.4 µg/mL (≈ 139 µM) |
| CC(Sc1nncn1C)C(=O)Nc1ccc2ccccc2c1 (configuration not stated) | > 46.9 µg/mL |
| Cc1ccc(S(=O)(=O)Nc2nc(-c3ccccc3)cs2)cc1 | > 49.6 µg/mL |
| COc1cc2c(cc1OC)C(c1ccccc1C(F)(F)F)CC(=O)N2 (configuration not stated) | < 0.8 µg/mL |

| SMILES | solubility kinetic |
| --- | --- |
| COc1cccc(CNC(=O)CCCSc2ccccc2)c1 | 35 µg/mL (≈ 111 µM) |
| CC(C)(CO)NC(=O)C12CC3CC(CC(Br)(C3)C1)C2 | > 49.5 µg/mL |
| O=C(CN1C(=O)NC2(CCCc3ccccc32)C1=O)c1ccc(F)c(F)c1 (configuration not stated) | 17.3 µg/mL (≈ 46.7 µM) |
| C=CCN1C(=O)CSC1=Nc1ccc(C(=O)O)cc1 | > 41.4 µg/mL |
| Cc1cnc(NC(=O)Nc2ccccc2)c(C)n1 | 32 µg/mL (≈ 132 µM) |
| Oc1c(Cl)cc(Cl)cc1C=Nc1ccc(N2CCOCC2)cc1 | 8.1 µg/mL (≈ 23.1 µM) |
| C=CCNC(=O)c1cc(-c2ccc3c(c2)OCO3)on1 | 1.5 µg/mL (≈ 5.51 µM) |
| COC(=O)c1ccsc1NC(=O)CN1CCN(c2ncccn2)CC1 | 4.1 µg/mL (≈ 11.3 µM) |
| CN1C2=CC=CC=CC2=[N+](C)C12C([N+](=O)[O-])=CC(=[N+]([O-])[O-])C=C2[N+](=O)[O-] (configuration not stated) | 0.7 µg/mL (≈ 1.95 µM) |
| CC(=O)c1ccc(NC(=O)c2cnsn2)cc1 | 29.1 µg/mL (≈ 118 µM) |
| COc1ccc(CN2CCN(Cc3ccc(C)cc3)C(CCO)C2)cc1OC (configuration not stated) | 51.8 µg/mL (≈ 135 µM) |
| CN1C2CCC1CC(NC(=O)c1ccc(Cl)cc1)C2 (configuration not stated) | > 41.8 µg/mL |
| NCC(=O)CCC(=O)O | 18.6 µg/mL (≈ 142 µM) |
| N#C/C(=C\c1ccccc1C(=O)O)c1nc2ccccc2[nH]1 | > 43.4 µg/mL |
| COc1cc2c(cc1/C=C/[N+](=O)[O-])OCO2 | 6.5 µg/mL (≈ 29.1 µM) |
| CC(C)Cn1c(N)c(C=O)c(=O)n(C)c1=O | > 33.8 µg/mL |
| CCSc1c([N+](=O)[O-])c(=O)n(-c2ccccc2)c2ccccc12 | 1.3 µg/mL (≈ 3.98 µM) |
| CCN(CC)c1ccc(CNCCc2ccc(F)cc2)cc1.Cl | > 50.5 µg/mL |
| O=C(OCC(=O)N1CCOCC1)c1ccc(Cl)cc1[N+](=O)[O-] | 48.3 µg/mL (≈ 147 µM) |
| CSc1ccc(S(=O)(=O)NC2CC2)cc1 | > 36.5 µg/mL |
